Laboratory results from PubChem BioAssay (NCI).
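A five-concentration, 48-hour dose response in 96-well plates underlies each endpoint, interpolated linearly between surrounding concentrations. TGI is the concentration that stops growth completely.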

Experiments:
Test in all cases: NCI tumour cell line growth inhibition, 48 h
[1] = test system: MALME-3M melanoma
[2] = test system: MDA-MB-435
[3] = test system: OVCAR-5 ovarian
[4] = test system: CAKI-1 renal
[5] = test system: HS 578T breast
[6] = test system: OVCAR-3 ovarian
[7] = test system: RPMI-8226 leukemia
[8] = test system: A549 NSCLC
[9] = test system: SK-MEL-28 melanoma
[10] = test system: SF-295 CNS
[11] = test system: SW-620 colon
[12] = test system: T-47D breast
[13] = test system: IGROV1 ovarian
[14] = test system: COLO 205 colon
[15] = test system: NCI-H23 lung
[16] = test system: HOP-92 NSCLC
[17] = test system: SK-MEL-2 melanoma
[18] = test system: LOX IMVI melanoma
[19] = test system: SK-OV-3 ovarian
[20] = test system: HCT-116 colon
[21] = test system: SF-268 CNS
[22] = test system: NCI-H460 lung
[23] = test system: MCF7 breast
[24] = test system: OVCAR-4 ovarian
[25] = test system: BT-549 breast
[26] = test system: CCRF-CEM leukemia
[27] = test system: OVCAR-8 ovarian
[28] = test system: 786-0 renal
[29] = test system: SK-MEL-5 melanoma
[30] = test system: HOP-62 NSCLC
[31] = test system: MOLT-4 leukemia
[32] = test system: HCC-2998 colon
[33] = test system: NCI-H226 lung
[34] = test system: EKVX NSCLC
[35] = test system: SNB-19 CNS
[36] = test system: UO-31 renal
[37] = test system: RXF 393 renal
[38] = test system: MDA-MB-231 breast
[39] = test system: M14 melanoma
[40] = test system: HT29 colon
[41] = test system: ACHN renal
[42] = test system: SF-539 CNS
[43] = test system: UACC-257 melanoma
[44] = test system: SN12C renal
[45] = test system: HL-60(TB) leukemia
[46] = test system: TK-10 renal
[47] = test system: NCI-H522 lung
[48] = test system: KM12 colon
[49] = test system: MDA-N
[50] = test system: UACC-62 melanoma
[51] = test system: DU-145 prostate
[52] = test system: HCT-15 colon
[53] = test system: SR leukemia
[54] = test system: NCI/ADR-RES ovarian
[55] = test system: A498 renal
[56] = test system: K-562 leukemia
[57] = test system: U251 CNS
[58] = test system: PC-3 prostate
[59] = test system: SNB-75 CNS

COc1cc2c(cc1O)Cc1c-2[n+](C)cc2cc(OC)c(OC)cc12
TGI [1]: > 100 µM | TGI [2]: > 100 µM | TGI [3]: > 100 µM | TGI [4]: > 100 µM | TGI [5]: > 100 µM | TGI [6]: > 100 µM | TGI [7]: > 100 µM | TGI [8]: > 100 µM | TGI [9]: > 100 µM | TGI [10]: > 100 µM | TGI [11]: > 100 µM | TGI [12]: > 100 µM | TGI [13]: > 100 µM | TGI [14]: > 100 µM | TGI [15]: > 100 µM | TGI [16]: > 100 µM | TGI [17]: > 100 µM | TGI [18]: > 100 µM | TGI [19]: > 100 µM | TGI [20]: > 100 µM | TGI [21]: > 100 µM | TGI [22]: > 100 µM | TGI [23]: > 100 µM | TGI [24]: > 100 µM | TGI [25]: > 57.9 µM | TGI [26]: > 24.9 µM | TGI [27]: > 100 µM | TGI [28]: > 44.7 µM | TGI [29]: 23.3 µM | TGI [30]: > 100 µM | TGI [31]: > 39.4 µM | TGI [32]: > 100 µM | TGI [33]: > 100 µM | TGI [34]: > 100 µM | TGI [35]: > 50 µM | TGI [36]: > 100 µM | TGI [37]: > 100 µM | TGI [38]: > 100 µM | TGI [39]: > 100 µM | TGI [40]: > 100 µM | TGI [41]: > 100 µM | TGI [42]: 7.46 µM | TGI [43]: > 100 µM | TGI [44]: > 100 µM | TGI [45]: > 100 µM | TGI [46]: > 100 µM | TGI [47]: > 100 µM | TGI [48]: > 100 µM | TGI [49]: > 100 µM | TGI [50]: > 77.9 µM | TGI [51]: > 100 µM | TGI [52]: > 100 µM | TGI [53]: > 22.1 µM | TGI [54]: > 100 µM | TGI [55]: > 100 µM | TGI [56]: > 100 µM | TGI [57]: 21.5 µM | TGI [58]: > 100 µM | TGI [59]: > 100 µM

Cc1c2ccccc2c(C2C3C(=O)N(c4cccc5ccccc45)C(=O)C3ON2Cc2ccc(CC(N)=O)cc2)c2ccccc12 (centres undefined)
TGI [1]: > 50 µM | TGI [2]: > 50 µM | TGI [3]: > 50 µM | TGI [4]: > 50 µM | TGI [5]: > 50 µM | TGI [6]: > 50 µM | TGI [8]: > 50 µM | TGI [9]: > 50 µM | TGI [10]: > 50 µM | TGI [11]: > 50 µM | TGI [12]: > 50 µM | TGI [13]: > 50 µM | TGI [14]: 14.6 µM | TGI [15]: > 50 µM | TGI [16]: > 50 µM | TGI [17]: 31.3 µM | TGI [18]: > 50 µM | TGI [19]: > 50 µM | TGI [20]: > 50 µM | TGI [21]: > 50 µM | TGI [22]: 48.6 µM | TGI [23]: > 50 µM | TGI [24]: > 50 µM | TGI [25]: > 50 µM | TGI [26]: > 50 µM | TGI [27]: > 50 µM | TGI [28]: > 50 µM | TGI [29]: > 50 µM | TGI [30]: > 50 µM | TGI [31]: 25.7 µM | TGI [33]: 46.5 µM | TGI [34]: 48.9 µM | TGI [35]: > 50 µM | TGI [36]: > 50 µM | TGI [37]: 40 µM | TGI [38]: > 50 µM | TGI [39]: > 50 µM | TGI [40]: 27 µM | TGI [41]: > 50 µM | TGI [42]: > 50 µM | TGI [43]: 37 µM | TGI [44]: > 50 µM | TGI [45]: > 50 µM | TGI [46]: > 50 µM | TGI [47]: > 50 µM | TGI [48]: > 50 µM | TGI [49]: 35.6 µM | TGI [50]: 47.3 µM | TGI [51]: > 50 µM | TGI [52]: > 50 µM | TGI [53]: 37.6 µM | TGI [54]: > 50 µM | TGI [55]: > 50 µM | TGI [56]: > 50 µM | TGI [57]: > 50 µM | TGI [58]: > 50 µM | TGI [59]: 43.5 µM

O=C1CCCCC1C(O)(C(F)(F)F)C(F)(F)Cl (centres undefined)
TGI [1]: > 10 µM | TGI [2]: > 10 µM | TGI [3]: > 10 µM | TGI [4]: > 10 µM | TGI [5]: > 10 µM | TGI [6]: > 10 µM | TGI [7]: > 10 µM | TGI [8]: > 10 µM | TGI [9]: > 10 µM | TGI [10]: > 10 µM | TGI [11]: > 10 µM | TGI [12]: > 10 µM | TGI [13]: > 10 µM | TGI [14]: > 10 µM | TGI [15]: > 10 µM | TGI [16]: > 10 µM | TGI [17]: > 10 µM | TGI [18]: > 10 µM | TGI [19]: > 10 µM | TGI [20]: > 10 µM | TGI [21]: > 10 µM | TGI [22]: > 10 µM | TGI [23]: > 10 µM | TGI [24]: > 10 µM | TGI [25]: > 10 µM | TGI [26]: > 10 µM | TGI [27]: > 10 µM | TGI [28]: > 10 µM | TGI [29]: > 10 µM | TGI [30]: > 10 µM | TGI [31]: > 10 µM | TGI [32]: > 10 µM | TGI [33]: > 10 µM | TGI [34]: > 10 µM | TGI [35]: > 10 µM | TGI [37]: > 10 µM | TGI [38]: > 10 µM | TGI [39]: > 10 µM | TGI [40]: > 10 µM | TGI [41]: > 10 µM | TGI [42]: > 10 µM | TGI [43]: > 10 µM | TGI [44]: > 10 µM | TGI [45]: > 10 µM | TGI [46]: > 10 µM | TGI [47]: > 10 µM | TGI [48]: > 10 µM | TGI [49]: > 10 µM | TGI [50]: > 10 µM | TGI [51]: > 10 µM | TGI [52]: > 10 µM | TGI [53]: > 10 µM | TGI [54]: > 10 µM | TGI [55]: > 10 µM | TGI [56]: > 10 µM | TGI [57]: > 10 µM | TGI [58]: > 10 µM | TGI [59]: > 10 µM
